Test results from patent publication US20060104951A1, “Akt and regulation of RA synovial fibroblast apoptosis” (priority 2004, published 2006).
Like-named read-outs stand apart in the source and are kept apart here.

What was measured:
Akt [1] = biological target: T1, Akt (Homo sapiens, UniProt P31749); settings: Cell: HL-60 K562; cited from earlier work
Akt [2] = biological target: T1, Akt; design: many cells; H2O2-treated B cells; settings: Cell: IL-2 activated T cell; cited from earlier work
[3] = tested on: rheumatoid arthritis synovial fibroblasts (RASF); assay: ATPlite-M cytotoxicity assay in RASF; settings: wortmannin alone, 18 hours
Akt [4] = biological target: T1, Akt; design: many cells; H2O2-treated B cells; settings: Cell: Many; cited from earlier work
Akt [5] = assay: Akt kinase assay (immunoprecipitated Akt, GSK-3 fusion protein substrate) in OASF; type: cell-based, human; settings: TNF-α 10 ng/ml
Description: Active Akt phosphorylates GSK-3 at […].
Akt kinase assay of RA synovial fibroblasts is performed using Akt kinase assay kit according to the protocol provided by manufacturer (New England Biolabs, Beverly, Mass.). Briefly, three hundreds micrograms of total proteins from RA synovial fibroblasts are added into Akt antibody coated beads, incubated at 4° C. for 3 hours followed by washing. Phosphorylation of GSK-3 is used as an indicator of phosphorylated Akt, since Akt negatively regulates GSK-3a/b kinase activity via phosphorylation of GSK-3 at […]. After the kinase reaction, the reaction mixture is electrophoresed on a 12% SDS-PAGE gel and western blotted. The blots are probed with an anti-phospho-GSK-3a/b (Ser219) antibody (rabbit polyclonal IgG, affinity purified).

[6] = tested on: phosphorylated Akt (Thr308); assay: Immunohistochemical staining of phosphorylated Akt in primary RASF; settings: TNF-α 10 ng/ml alone vs PBS, 18 hours
Description: To determine if this TNF-α survival signal involves a PI 3-kinase dependent mechanism, RASF and OASF are treated with TNF-α (10 ng/ml), using PBS as a control, in the presence and absence of the PI 3-kinase inhibitor, wortmannin (50 nM). After 18 hours, the synovial fibroblasts are stained using an antibody specific for phosphorylated-Akt.
The in-situ expression of phosphorylated-Akt is determined by staining fixed cells with an antibody specific for Thr308 phosphorylated Akt (New England Biolabs, Beverly, Mass.). Quenching of endogenous peroxidase is performed by incubating tissue sections with 3% H2O2 at RT for 10 min in a humidified chamber. After washing with PBS, tissue sections are incubated with 0.1% trypsin at 37° C. for 10 min to reveal fixed antigen epitopes. Tissue sections are then treated with denaturing solution at 20° C. for 30 min and blocking solution at RT for 10 min followed by incubation with a horseradish peroxidase (HRP) conjugated antibody specific for phosphorylated-Akt antibody (New England Biolabs, Beverly, Mass.). Slides are incubated with DAB staining kit (DAKO) for color development then counterstained with methyl green. At least 5 areas from each specimen are chosen randomly for assessment of the percentage of Akt-positive cells.

phosphorylated Akt = assay: Western blot of phosphorylated-Akt in RASF lysates; settings: TNF-α 10 ng/ml alone
Description: The levels of phosphorylated-Akt are determined by Western blot analysis of lysates from RASF and OASF cell lines.
To determine the optimal amount of AdAkt-DN required to inhibit Akt phosphorylation, RASF is transfected with either 50 pfu/cell of AdGFP or with 5 pfu/cell or with 50 pfu/cell of AdAkt-DN respectively for 18 hr. The cells are then stimulated with TNFα (10 ng/ml) for 18 hr.
For evaluation of the phosphorylated form of Akt, the synovial cells are washed twice with ice-cold PBS followed by incubation with 200 μl of cell lysis buffer (20 mmol/L Tris [pH 7.4], 150 mmol/L NaCl, 1 mmol/L EDTA, 1 mmol/L EGTA, 1% Triton, 2.5 mmol/L sodium pyrophosphate, 1 mmol/L β-glycerophosphate, 1 mmol/L Na3VO4, 1 μg/mL leupeptin, and 1 mmol/L PMSF) for 5 min on ice. The cells are then harvested by scraping and sonicated using a Branson Sonicator (3×5 seconds, output control 2, duty cycle 100%) on ice. After centrifugation for 10 min at 20,000 g at 4° C., the protein concentration of the supernatant is determined using the Bio-Rad protein assay kit (Bio-Rad, Hercules, Calif.). […] Phosphorylated Akt is detected using the PhosphoPlus Akt antibody kit (New England Biolabs, Beverly, Mass.).

T1 sequence (P31749 whole entry): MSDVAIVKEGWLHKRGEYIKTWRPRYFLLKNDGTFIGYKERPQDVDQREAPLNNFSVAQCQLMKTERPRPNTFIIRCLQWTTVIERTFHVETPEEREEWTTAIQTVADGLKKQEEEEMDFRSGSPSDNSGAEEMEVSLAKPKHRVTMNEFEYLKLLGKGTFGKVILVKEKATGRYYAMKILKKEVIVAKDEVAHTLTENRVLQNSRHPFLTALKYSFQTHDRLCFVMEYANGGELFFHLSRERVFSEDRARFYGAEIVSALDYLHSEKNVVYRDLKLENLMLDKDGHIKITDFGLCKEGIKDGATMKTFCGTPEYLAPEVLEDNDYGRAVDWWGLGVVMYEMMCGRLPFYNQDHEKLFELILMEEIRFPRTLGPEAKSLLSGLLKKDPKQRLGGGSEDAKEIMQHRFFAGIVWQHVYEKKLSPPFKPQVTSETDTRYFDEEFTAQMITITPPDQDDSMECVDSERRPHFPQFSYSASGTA

In the case of `Cc1ccc(NC(=O)c2ccc(CN3CCN(C)CC3)cc2)cc1Nc1nccc(-c2cccnc2)n1` [CGP57148B], the Action (Akt [1]) is given as “Block Akt”.

For `C[S+]([O-])c1ccc(-c2nc(-c3ccncc3)c(-c3ccc(F)cc3)[nH]2)cc1` (centres unmarked) [SB 203580], the Action (Akt [2]) is listed as “Block Akt”.

With `COC[C@H]1OC(=O)c2coc3c2[C@@]1(C)C1=C(C3=O)[C@@H]2CCC(=O)[C@@]2(C)C[C@H]1OC(C)=O` [wortmannin] the “cytotoxicity (ATPlite)” value [3] was “Neither treatment with TNF-α nor wortmannin alone could induce cytotoxicity”.

For “Insulin-like growth factor-1: growth factor known to activate Akt”, the Action (Akt [4]) is listed as “Activates Akt”.

In the case of PDGF, the Action (Akt [4]) is listed as “Activates Akt”.

With tumor necrosis factor-alpha [TNF-α] the Akt kinase activity (Akt [5]) was “did not induce Akt kinase activity”, the “production of phosphorylated Akt (immunohistochemical staining)” value [6] was “greatly enhanced production of phosphorylated Akt” and the “levels of phosphorylated-Akt (Western blot)” value (phosphorylated Akt) was “marked increase”.
